Bounds are passed on as bounds.

The target in the assay is T1, NCPAH-(His)6; N-carbamoylputrescine amidohydrolase (NCPAH) (Bacteroides thetaiotaomicron, UniProt Q8A9E0).
T1 construct: gene BT_0875; full-length, C-terminal His6 tag kept (pET23b NdeI/XhoI, plasmid pMSK106), expressed in E. coli BL21(DE3)
T1 sequence (Q8A9E0 1-294): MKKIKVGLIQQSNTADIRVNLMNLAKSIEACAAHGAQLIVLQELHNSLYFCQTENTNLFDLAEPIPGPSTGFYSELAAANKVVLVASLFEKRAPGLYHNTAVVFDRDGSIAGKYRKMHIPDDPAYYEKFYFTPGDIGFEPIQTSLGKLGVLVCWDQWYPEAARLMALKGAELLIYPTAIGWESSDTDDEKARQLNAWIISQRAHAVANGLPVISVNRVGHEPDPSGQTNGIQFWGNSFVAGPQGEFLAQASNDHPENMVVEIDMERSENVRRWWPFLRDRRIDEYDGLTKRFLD
Nature of the assay: HPLC of putrescine formed. The class given is biochemical. The note with it: read-out: % inhibition at 1 mM.
Broadly, the inhibition is the share of the control response that was lost under treatment. For `NCCCCNCCCN` [spermidine], the inhibition at 1000 µM was above 80%.

For `NCCCCN` [putrescine], the inhibition at 1000 µM is around 50%. On to `N=C(N)NCCCCN` [agmatine], for which the inhibition at 1000 µM is above 80%.

For the origin of these results see publication PMC10135574, “N-Carbamoylputrescine Amidohydrolase of Bacteroides thetaiotaomicron, a Dominant Species of the Human Gut Microbiota” (Biomedicines, 2023).
